Several values for one entry are separate records, joined by “and”; a condition that tells them apart may be missing. Equal values may be shown once. Read-outs that look alike come from different tables or passages of the source.
Columns and labels:
[1] = background art; cited from earlier work
[2] = Flax seed oil powder: keeping of powdery form; format: physicochemical; conditions: 1 part flax seed oil + 10 parts saccharide as base
Experimental: One part by weight of flax seed oil was admixed with 10 parts by weight of the porous anhydrous crystalline trehalose, prepared by treating at 70° C. for 60 min in Example 1, and then the mixture was kneaded to make into a powdery product. In the same manner, powdery products were prepared by using “TREHA®”, hydrous crystalline trehalose commercialized by Hayashibara Shoji Inc., Okayama, Japan, and anhydrous crystalline trehalose, prepared from hydrous crystalline trehalose by drying in vacuo at a high temperature according to the conventional method, as controls. […] The flaxseed oil powder can be preferably used as a supplement.

[3] = Preservation test of flax seed oil powder, volatile aldehydes by GC; format: physicochemical; conditions: flax seed oil powder with this base
Experimental: As disclosed in Japanese Patent Kokai No. 123,195/2001 applied for by the same applicant of the present invention, it has been known that trehalose inhibits the decomposition of fatty acids and the formation of volatile aldehydes. Therefore, a preservation test of the flax seed oil powders were carried out according to the following method by using the flax seed oil powders prepared in Example 9 by using the porous anhydrous crystalline trehalose of the present invention or the control anhydrous crystalline trehalose as powderizing bases, and the amounts of the formed volatile aldehydes were compared.
One gram each of the flax seed oil powder was put into two 20 ml-vial, sealed with Butyl-rubber stopper, and then preserved in an incubator at 40° C. for three weeks. The vial was collected at the point of before the preservation or after preserving for 21 days and heated at 80° C. for 5 min. Then, 2 ml of vapor phase gas in the vial was directly subjected to gas chromatography (GC) analysis to determine the amount of volatile aldehydes. GC analysis was carried out according to the following conditions.
• Gas chromatograph: GC-17B, produced by Shimadzu Corporation, Kyoto, Japan; • Column: TC-FFAP capillary column (ID 0.52 mm×30 m), produced by GL Sciences Inc., Tokyo, Japan; • Column temperature: 40° C. to 100° C.

[4] = Dissolution test against cold water at 10° C.; format: physicochemical; conditions: for Time required for dissolution, No. 1 / Time required for dissolution, No. 2 / Time required for dissolution, No. 3 / Time required for dissolution, No. 4 / Time required for dissolution, No. 5 / Time required for dissolution, Average: 20 ml water 10° C., about 300 rpm, 0.5 g trehalose or 0.2 g maltose; for Time required for dissolution, Average: average of 5
Experimental: A dissolution test against cold water at 10° C. was carried out using the porous anhydrous crystalline trehalose prepared by treating at 70° C. for 60 min in Example 1, the porous anhydrous crystalline maltose prepared by the method in Example 3, and the porous hydrous crystalline maltose prepared by the method in Example 5, as samples. The results were compared with those of the controls, anhydrous crystalline trehalose, hydrous crystalline trehalose, and hydrous crystalline maltose.
Twenty milliliters of 10° C.-cold water was placed in a test tube with an internal diameter of 18 mm, and then stirred using a stirring bar. A crystalline saccharide sample was put into the test tube, and the time required for the complete dissolution (for the disappearance of precipitate particles) was measured. The amount of samples was set to be 0.5 g in the case of trehalose and to be 0.2 g in the case of maltose, and the stirring rate was set to be about 300 rpm in any case. The measurement of time for dissolution under the above conditions was carried out 5-times at each sample.

[5] = Oil-keeping ability with salad oil; format: physicochemical; design: key to Oil-keeping ability: (5 g salad oil / g saccharide added at endpoint) x 100; conditions: for Oil-keeping ability: (5 g salad oil / amount of added saccharide) x 100
Experimental: The oil-keeping ability of each crystalline saccharide was measured using the porous anhydrous crystalline trehalose prepared by treating at 70° C. for 60 min in Example 1, the control hydrous crystalline trehalose, and the control anhydrous crystalline trehalose as crystalline trehalose samples; and the porous anhydrous crystalline maltose prepared by the method in Example 3, the control hydrous crystalline β-maltose, and the control anhydrous crystalline α-maltose, and the control anhydrous crystalline β-maltose as crystalline maltose samples, and the results were compared.
The measurement of the oil-keeping ability of the crystalline saccharide was carried out according to the method disclosed in Japanese Patent Kokai No. 31,650/84. Five grams of “NISSHIN SALAD OIL”, a salad oil commercialized by Nisshin OiliO Group, Ltd., Tokyo, Japan, was placed in a 50-ml plastic container, and then gradually admixed with each powdery crystalline saccharide with stirring. […] When the amount of the mixed saccharide is further increased, the agglomerate increase in solidity and then loosen. The point that the agglomerate is loosened is estimated to be the endpoint and the oil-keeping ability was calculated using the following formula. Oil-Keeping Ability =(The amount of salad oil(5 g)/the amount of added PCS*)×100 *: Powdery crystalline saccharide tm Formula 1

[6] = Crystal moisture content (Karl Fischer) on moisture absorption and drying; format: physicochemical
Experimental: Hydrous crystalline saccharides were prepared from the respective porous anhydrous crystalline saccharide using the porous anhydrous crystalline trehalose, obtained by treating at 70° C. for 60 min in Example 1, and the porous anhydrous crystalline maltose, obtained by treating at 70° C. for 480 min in Example 3, as materials. About 50 g of the porous anhydrous crystalline saccharide and about 150 ml of deionized water were placed in respective container. Then, the both open containers were placed in the same closed vessel and leaved to stand at 27° C. for two days. By the treatment, the anhydrous crystalline saccharide was allowed to absorb moisture and converted into hydrous crystal. The resulting hydrous crystal was dried in a drying machine at 50° C. for one hour to remove excess moisture. The moisture contents of the porous anhydrous crystalline trehalose and the porous anhydrous crystalline maltose before and after the treatment to absorb moisture and after drying are in Table 6. The moisture content of crystals was measured by the conventional Karl Fischer's method.

[7] = Specific surface area by nitrogen adsorption isotherms (BET); format: physicochemical; conditions: for Specific surface area: nitrogen adsorption isotherms, BET
Experimental: Specific surface area of the porous anhydrous crystalline trehalose was measured by the nitrogen adsorption isotherms using “MODEL ASAP-2400”, a specific surface area/pore size distribution analyzer commercialized by Micromeritics, Georgia, USA. […] The result was analyzed by the BET (Brunnauer, Emmet, and Teller) method. The commercial anhydrous crystalline trehalose, a reagent grade, commercialized by Hayashibara Biochemical Laboratories Inc., Okayama, Japan, was used as a control. […] Further, those pore size distribution charts are in FIG. 19. […] The results of the analysis on the specific surface area and the pore size distribution are summarized in Table 7, and the pore size distribution chart was in FIG. 24. As a control, “MALTOSE OM”, a hydrous crystalline maltose product with maltose purity of 98% or higher, produced by Hayashibara Co., Ltd., Okayama, Japan, was used.

[8] = Pore size distribution by the mercury filling method; format: physicochemical; conditions: for Median pore diameter: control maltose values are from space between particles, not pores
[9] = 21 days after preservation at 40° C.
[10] = 21 days after preservation at 40° C., listed as Porous anhydrous crystalline trehalose (Present invention)
[11] = before preservation, listed as Porous anhydrous crystalline trehalose (Present invention)
[12] = listed as Porous anhydrous crystalline trehalose (Present invention)
[13] = listed as control anhydrous crystalline trehalose

Structure (SMILES): OC[C@H]1O[C@@](CO)(O[C@H]2O[C@H](CO)[C@@H](O)[C@H](O)[C@H]2O)[C@@H](O)[C@@H]1O [granulated sugar, sucrose]
- Specific surface area [1]: about 0.1 m^2/g

Structure (SMILES): OC[C@H]1O[C@H](O[C@H]2O[C@H](CO)[C@@H](O)[C@H](O)[C@H]2O)[C@H](O)[C@@H](O)[C@@H]1O [Porous anhydrous crystalline trehalose (treated at 70° C. fo] [α-D-glucosyl α-D-glucoside]
- Powdery form of flax seed oil powder [2]: kept good powdery form
- 2-Heptenal [3, 9]: 0.01 μg/ml-vapor phase gas
- 2,4-Decadienal [3, 10]: 4.01 μg/ml-vapor phase gas
- 2-Hexenal [3, 10]: 0.01 μg/ml-vapor phase gas
- 2-Nonenal [3, 10]: 0.19 μg/ml-vapor phase gas
- 2-Octenal [3, 10]: 0.43 μg/ml-vapor phase gas
- Acetoaldehyde [3, 10]: 3.77 μg/ml-vapor phase gas
- Butanal [3, 10]: 0.63 μg/ml-vapor phase gas
- Hexanal [3, 10]: 0.11 μg/ml-vapor phase gas
- Pentanal [3, 10]: 0.33 μg/ml-vapor phase gas
- Propanal [3, 10]: 8.66 μg/ml-vapor phase gas
- Total aldehydes [3, 10]: 18.15 μg/ml-vapor phase gas
- 2-Heptenal ([3]; before preservation): 0.00 μg/ml-vapor phase gas
- 2-Hexenal ([3]; before preservation): 0.00 μg/ml-vapor phase gas
- 2,4-Decadienal [3, 11]: 3.66 μg/ml-vapor phase gas
- 2-Nonenal [3, 11]: 0.00 μg/ml-vapor phase gas
- 2-Octenal [3, 11]: 0.11 μg/ml-vapor phase gas
- Acetoaldehyde [3, 11]: 4.13 μg/ml-vapor phase gas
- Butanal [3, 11]: 0.43 μg/ml-vapor phase gas
- Hexanal [3, 11]: 0.00 μg/ml-vapor phase gas
- Pentanal [3, 11]: 0.09 μg/ml-vapor phase gas
- Propanal [3, 11]: 5.77 μg/ml-vapor phase gas
- Total aldehydes [3, 11]: 14.19 μg/ml-vapor phase gas
- Time required for dissolution, No. 1 [4, 12]: 29 s
- Time required for dissolution, No. 2 [4, 12]: 34 s
- Time required for dissolution, No. 3 [4, 12]: 40 s
- Time required for dissolution, No. 4 [4, 12]: 29 s
- Time required for dissolution, No. 5 [4, 12]: 31 s
- Time required for dissolution, Average [4, 12]: 33 s
- Dissolution in cold water in comparison with controls ([4]; cold water 10° C.): rapidly dissolved in cold water
- Oil-keeping ability [5]: 62.5
- Oil-keeping ability [5, 12]: 62.5
- Oil-keeping ability relative to control ([5]; compared with control crystalline saccharide): about 1.6 folds
- Crystal moisture content, after drying ([6]; after moisture absorption and drying at 50° C. for one hour): 9.66 %, w/w
- Crystal moisture content, before treatment ([6]; before moisture absorption): 0.24 %, w/w
- Crystal moisture content, after treatment ([6]; closed vessel with water, 27° C., two days): 10.32 %, w/w
- Specific surface area relative to control crystalline saccharide ([7]; compared with control(s)): ≥ 5 folds
- Specific surface area [7]: 2.513 m^2/g
- Intrusion volume [8]: 0.28 mL/g
- Mode pore diameter [8]: 0.20 μm
- Pore diameter of clear peak in pore size distribution chart [8]: less than 5 μm
- Remarks (pores) [8]: Having clear pores
- Median pore diameter [8]: 0.29 μm
- Intrusion volume ([8]; listed as porous anhydrous crystalline trehalose): 0.22 mL/g and 0.28 mL/g

Structure (SMILES): OC[C@H]1O[C@H](O[C@H]2O[C@H](CO)[C@@H](O)[C@H](O)[C@H]2O)[C@H](O)[C@@H](O)[C@@H]1O [Anhydrous crystalline trehalose (Control)] [α-D-glucosyl α-D-glucoside, reference compound]
- Powdery form of flax seed oil powder [2, 13]: could not keep powdery forms
- 2,4-Decadienal [3, 9]: 7.01 μg/ml-vapor phase gas
- 2-Heptenal [3, 9]: 0.01 μg/ml-vapor phase gas
- 2-Hexenal [3, 9]: 0.02 μg/ml-vapor phase gas
- 2-Nonenal [3, 9]: 0.27 μg/ml-vapor phase gas
- 2-Octenal [3, 9]: 0.66 μg/ml-vapor phase gas
- Acetoaldehyde [3, 9]: 8.99 μg/ml-vapor phase gas
- Butanal [3, 9]: 0.93 μg/ml-vapor phase gas
- Hexanal [3, 9]: 0.16 μg/ml-vapor phase gas
- Pentanal [3, 9]: 0.55 μg/ml-vapor phase gas
- Propanal [3, 9]: 12.98 μg/ml-vapor phase gas
- Total aldehydes [3, 9]: 31.58 μg/ml-vapor phase gas
- 2,4-Decadienal ([3]; before preservation): 6.77 μg/ml-vapor phase gas
- 2-Heptenal ([3]; before preservation): 0.00 μg/ml-vapor phase gas
- 2-Hexenal ([3]; before preservation): 0.00 μg/ml-vapor phase gas
- 2-Nonenal ([3]; before preservation): 0.01 μg/ml-vapor phase gas
- 2-Octenal ([3]; before preservation): 0.23 μg/ml-vapor phase gas
- Acetoaldehyde ([3]; before preservation): 8.91 μg/ml-vapor phase gas
- Butanal ([3]; before preservation): 0.66 μg/ml-vapor phase gas
- Hexanal ([3]; before preservation): 0.07 μg/ml-vapor phase gas
- Pentanal ([3]; before preservation): 0.13 μg/ml-vapor phase gas
- Propanal ([3]; before preservation): 10.24 μg/ml-vapor phase gas
- Total aldehydes ([3]; before preservation): 27.02 μg/ml-vapor phase gas
- Time required for dissolution, No. 1 [4]: 90 s
- Time required for dissolution, No. 2 [4]: 87 s
- Time required for dissolution, No. 3 [4]: 96 s
- Time required for dissolution, No. 4 [4]: 91 s
- Time required for dissolution, No. 5 [4]: 86 s
- Time required for dissolution, Average [4]: 90 s
- Oil-keeping ability [5]: 38.5
- Oil-keeping ability [5, 13]: 38.5
- Specific surface area ([7]; listed as Anhydrous crystalline trehalose (Conventional product, Control)): 0.465 m^2/g
- Intrusion volume [8]: 0.03 mL/g
- Mode pore diameter [8]: 0.46 μm
- Median pore diameter [8]: 0.40 μm
- Intrusion volume [8, 13]: 0.03 mL/g
